# Laboratory results published in PubChem BioAssay (NCI).
#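 96-well plates; 48 h exposure; 5 concentrations. Endpoints by linear interpolation between flanking doses. Not reached: highest tested concentration assigned. GI50 marks 50% less growth. TGI is the concentration that stops growth completely.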
# Legend:
# Experiment in all cases: NCI tumour cell line growth inhibition, 48 h
# [1] = system: COLO 205 colon
# [2] = system: UACC-62 melanoma
# [3] = system: BT-549 breast
# [4] = system: ACHN renal
# [5] = system: SF-295 CNS
# [6] = system: OVCAR-4 ovarian
# [7] = system: NCI/ADR-RES ovarian
# [8] = system: HOP-92 NSCLC
# [9] = system: CCRF-CEM leukemia
# [10] = system: 786-0 renal
# [11] = system: OVCAR-5 ovarian
# [12] = system: SNB-75 CNS
# [13] = system: HOP-62 NSCLC
# [14] = system: OVCAR-3 ovarian
# [15] = system: SR leukemia
# [16] = system: NCI-H460 lung
# [17] = system: LOX IMVI melanoma
# [18] = system: SW-620 colon
# [19] = system: EKVX NSCLC
# [20] = system: RPMI-8226 leukemia
# [21] = system: SF-268 CNS
# [22] = system: SF-539 CNS
# [23] = system: SK-MEL-5 melanoma
# [24] = system: T-47D breast
# [25] = system: HT29 colon
# [26] = system: NCI-H226 lung
# [27] = system: MALME-3M melanoma
# [28] = system: MOLT-4 leukemia
# [29] = system: MCF7 breast
# [30] = system: NCI-H23 lung
# [31] = system: HCT-116 colon
# [32] = system: HCT-15 colon
# [33] = system: SK-MEL-2 melanoma
# [34] = system: M14 melanoma
# [35] = system: A549 NSCLC
# [36] = system: UACC-257 melanoma
# [37] = system: IGROV1 ovarian
# [38] = system: KM12 colon
# [39] = system: SK-MEL-28 melanoma
# [40] = system: HCC-2998 colon
# [41] = system: MDA-MB-231 breast
# [42] = system: SN12C renal
# [43] = system: PC-3 prostate
# [44] = system: RXF 393 renal
# [45] = system: OVCAR-8 ovarian
# [46] = system: DU-145 prostate
# [47] = system: UO-31 renal
# [48] = system: HS 578T breast
# [49] = system: CAKI-1 renal
# [50] = system: HL-60(TB) leukemia
# [51] = system: K-562 leukemia
# [52] = system: SK-OV-3 ovarian
# [53] = system: NCI-H522 lung
# [54] = system: SNB-19 CNS
# [55] = system: MDA-MB-435
# [56] = system: U251 CNS
# [57] = system: TK-10 renal
compound,measurement,setting,value
O=C(Nc1cccc(C(F)(F)F)c1)Nc1cccc(C(F)(F)F)c1,GI50,[1],985 nM
same,TGI,[1],2590 nM
same,GI50,[2],702 nM
same,TGI,[2],2660 nM
same,GI50,[3],2290 nM
same,TGI,[3],6440 nM
same,GI50,[4],422 nM
same,TGI,[4],7600 nM
same,GI50,[5],323 nM
same,TGI,[5],1570 nM
same,GI50,[6],679 nM
same,TGI,[6],13700 nM
same,GI50,[7],651 nM
same,TGI,[7],4840 nM
same,GI50,[8],786 nM
same,TGI,[8],6080 nM
same,GI50,[9],721 nM
same,TGI,[9],10800 nM
same,GI50,[10],1560 nM
same,TGI,[10],4140 nM
same,GI50,[11],3240 nM
same,TGI,[11],14800 nM
same,GI50,[12],3490 nM
same,TGI,[12],31700 nM
same,GI50,[13],1400 nM
same,TGI,[13],3640 nM
same,GI50,[14],408 nM
same,TGI,[14],5040 nM
same,GI50,[15],1770 nM
same,TGI,[15],7560 nM
same,GI50,[16],441 nM
same,TGI,[16],5730 nM
same,GI50,[17],1000 nM
same,TGI,[17],2280 nM
same,GI50,[18],798 nM
same,TGI,[18],6880 nM
same,GI50,[19],983 nM
same,TGI,[19],7880 nM
same,GI50,[20],382 nM
same,TGI,[20],5600 nM
same,GI50,[21],2100 nM
same,TGI,[21],10900 nM
same,GI50,[22],2130 nM
same,TGI,[22],5230 nM
same,GI50,[23],1280 nM
same,TGI,[23],2550 nM
same,GI50,[24],398 nM
same,TGI,[24],2940 nM
same,GI50,[25],840 nM
same,TGI,[25],6060 nM
same,GI50,[26],1010 nM
same,TGI,[26],3660 nM
same,GI50,[27],1360 nM
same,TGI,[27],3920 nM
same,GI50,[28],1340 nM
same,TGI,[28],6440 nM
same,GI50,[29],852 nM
same,TGI,[29],10000 nM
same,GI50,[30],349 nM
same,TGI,[30],1970 nM
same,GI50,[31],462 nM
same,TGI,[31],2760 nM
same,GI50,[32],464 nM
same,TGI,[32],3410 nM
same,GI50,[33],1840 nM
same,TGI,[33],4730 nM
same,GI50,[34],1320 nM
same,TGI,[34],3930 nM
same,GI50,[35],531 nM
same,TGI,[35],8210 nM
same,GI50,[36],1310 nM
same,TGI,[36],4950 nM
same,GI50,[37],868 nM
same,TGI,[37],10300 nM
same,GI50,[38],444 nM
same,TGI,[38],3190 nM
same,GI50,[39],1860 nM
same,TGI,[39],10500 nM
same,GI50,[40],1510 nM
same,TGI,[40],6500 nM
same,GI50,[41],1470 nM
same,TGI,[41],3290 nM
same,GI50,[42],923 nM
same,TGI,[42],5240 nM
same,GI50,[43],374 nM
same,TGI,[43],12500 nM
same,GI50,[44],1490 nM
same,TGI,[44],4350 nM
same,GI50,[45],1060 nM
same,TGI,[45],10400 nM
same,GI50,[46],920 nM
same,TGI,[46],12400 nM
same,GI50,[47],649 nM
same,TGI,[47],4210 nM
same,GI50,[48],2250 nM
same,TGI,[48],12500 nM
same,GI50,[49],1810 nM
same,TGI,[49],11200 nM
same,GI50,[50],1840 nM
same,TGI,[50],5860 nM
same,GI50,[51],431 nM
same,TGI,[51],10300 nM
same,GI50,[52],1890 nM
same,TGI,[52],6340 nM
same,GI50,[53],1200 nM
same,TGI,[53],4320 nM
same,GI50,[54],658 nM
same,TGI,[54],9930 nM
same,GI50,[55],1440 nM
same,TGI,[55],5510 nM
same,GI50,[56],509 nM
same,TGI,[56],3140 nM
same,GI50,[57],1300 nM
same,TGI,[57],7200 nM
